Data reported in patent US20210221785A1, “AMINO-PYRIMIDONYL DERIVATIVES, A PROCESS FOR THEIR PREPARATION AND PHARMACEUTICAL COMPOSITIONS CONTAINING THEM” (LES LABORATOIRES SERVIER, priority 2018, published 2021).

How the values were obtained:
[1] = system: Z138 mantle cell lymphoma tumour cell lines; test: In vitro cytotoxicity, MTT assay; assay type: cell-based; details: Homo sapiens, Z-138, 96 h, Z138 cells exposed to the test compounds for 96 hours; cell viability vs DMSO treated cells
Description: The cytotoxicity studies were evaluated by MTT [3-(4,5-dimethylthiazol-2-yl)-2,5-diphenyltetrazolium bromide] assay and carried out on Z138 mantle cell lymphoma tumour cell lines. The cells are distributed onto microplates and exposed to the test compounds for 96 hours. MTT is then added for 4 hours and converted by NAD(P)H-dependent cellular oxidoreductase enzymes in formazan, which has a purple color. The viable cell number is proportional to the production of formuan salts and cell viability can be quantified by the absorbance of the solution at 540 nm with a speetrophotometer (Carmichael et al., Cancer Res. 1987, 47, 936-942).

[2] = target: T1, His-His-USP7 (aa208-560, |C315A|) (Homo sapiens, UniProt Q93009, C315A); test: Evaluation of the inhibition of USP7 by the Fluorescence Intensity (FLINT) readings; assay type: biochemical; details: 0.25 nM His-His-USP7, compound incubated 60 minutes at 30° C., 500 nM Ubiquitin-Rhodamine-110 substrate; 50% reduction in kinetic rate
T1 construct: His-His-USP7 (aa208-560, |C315A|); His-His (N)
Outline: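 0.25 nM His-His-USP7 (aa208–560, C315A) preincubated 60 min at 30 °C with compound in 100 mM Bicine pH 8.0, 0.01% Triton X-100, 1 mM TCEP, 10% DMSO. Reaction started with 500 nM ubiquitin-rhodamine-110 and fluorescence (Ex485/Em535) read every 3 min for 21 min. IC50 derived from kinetic-rate reduction over an 11-point curve, 4-parameter fit.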

T1 sequence (Q93009 208-560 C315A): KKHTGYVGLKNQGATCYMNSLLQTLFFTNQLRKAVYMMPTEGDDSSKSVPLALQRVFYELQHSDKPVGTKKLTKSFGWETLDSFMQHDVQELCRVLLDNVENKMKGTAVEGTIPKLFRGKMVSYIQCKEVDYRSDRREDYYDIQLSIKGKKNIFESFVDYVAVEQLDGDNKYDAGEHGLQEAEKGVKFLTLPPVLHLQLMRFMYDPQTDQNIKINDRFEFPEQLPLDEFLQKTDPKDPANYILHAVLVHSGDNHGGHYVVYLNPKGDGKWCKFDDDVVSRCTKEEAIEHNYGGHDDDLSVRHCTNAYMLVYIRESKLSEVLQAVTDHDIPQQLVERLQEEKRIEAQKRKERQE

IC50 [2] [nM] | SMILES | IC50 [1] [µM]
79.5 | Nc1c(Oc2ccc(F)cc2)ncn(CC2(O)CCN(C(=O)[C@@H]3CC[C@@](F)(Cc4ccccn4)C[C@H]3c3ccccc3)CC2)c1=O (relative stereo) [Example 126, rel-5-amino-3-[(1-{[(1R,2R,4S)-4-fluoro-2-phenyl-4-(pyridin-2-ylmethyl)cyclohexyl]carbonyl)}-4-hydroxypiperidin-4-yl)methyl]-6-(4-fluorophenoxy)pyrimidin-4-one] | 0.17
80.7 | Nc1c(Oc2ccc(F)cc2)ncn(CC2(O)CCN(C(=O)[C@@H]3CC[C@@](F)(C#Cc4ccc(F)cn4)C[C@H]3c3ccccc3)CC2)c1=O [Example 134, 5-amino-3-[(1-{[(1R,2R,4S)-4-fluoro-4-[2-(5-fluoropyridin-2-yl)ethynyl]-2-phenylcyclohexyl]carbonyl}-4-hydroxypiperidin-4-yl)methyl]-6-(4-fluorophenoxy)pyrimidin-4-one] | 0.0309
39.8 | CO[C@]1(C#Cc2nnccc2C)CC[C@@H](C(=O)N2CC[C@](O)(Cn3cnc(Oc4ccc(F)cc4)c(N)c3=O)C(F)(F)C2)[C@H](c2ccccc2)C1 [Example 170, 5-amino-3-{[(4S)-3,3-difluoro-4-hydroxy-1-[(1R,2R,4R)-4-methoxy-4-[2-(4-methylpyridazin-3-yl)ethynyl]-2-phenylcyclohexanecarbonyl]piperidin-4-yl]methyl}-6-(4-fluorophenoxy)-3,4-dihydropyrimidin-4-one] | 0.0219
5.5 | Cc1cnnc(C#C[C@@]2(F)CC[C@@H](C(=O)N3CC[C@](O)(Cn4cnc(Oc5ccc(F)cc5)c(N)c4=O)C(F)(F)C3)[C@H](c3ccccc3)C2)c1 [Example 172, 5-amino-3-{[(4S)-3,3-difluoro-1-[(1R,2R,4R)-4-fluoro-4-[2-(5-methylpyridazin-3-yl)ethynyl]-2-phenylcyclohexanecarbonyl]-4-hydroxypiperidin-4-yl]methyl}-6-(4-fluorophenoxy)-3,4-dihydropyrimidin-4-one] | 0.00501
62 | Nc1c(Oc2ccc3c(c2)CC(O)C3)ncn(CC2(O)CCN(C(=O)[C@@H]3CCC(F)(F)C[C@H]3c3ccccc3)CC2)c1=O (stereo partly drawn) [Example 48, 5-amino-3-({1-[(1R,2R)-4,4-difluoro-2-phenylcyclohexane-1-carbonyl]-4-hydroxypiperidin-4-yl}methyl)-6-[(2-hydroxy-2,3-dihydro-1H-inden-5-yl)oxy]pyrimidin-4(3H)-one] | 0.072
90.3 | Nc1c(Oc2ccccc2)ncn(CC2(O)CCN(C(=O)[C@@H]3CC(F)(F)CC[C@H]3c3ccccc3)CC2)c1=O [Example 82, 5-amino-3-({1-[(1R,2R)-5,5-difluoro-2-phenylcyclohexane-1-carbonyl]-4-hydroxypiperidin-4-yl}methyl)-6-phenoxypyrimidin-4(3H)-one] | 0.18
66.3 | C#CC1(F)CC[C@@H](C(=O)N2CCC(O)(Cn3cnc(Oc4ccc(F)cc4)c(N)c3=O)CC2)[C@H](c2ccccc2)C1 (relative stereo) [Example 93, rel-5-amino-3-({1-[(1R,2R)-4-ethynyl-4-fluoro-2-phenyl-cyclohexanecarbonyl]-4-hydroxypiperidin-4-yl}methyI)-6-(4-fluorophenoxy)-3,4-dihydropyrimidin-4-one] | 0.0411
63.9 | Nc1c(Oc2ccc(CC(F)F)cc2)ncn(CC2(O)CCN(C(=O)[C@@H]3CCC(F)(F)C[C@H]3c3ccccc3)CC2)c1=O [Example 38, 5-amino-6-[4-(2,2-difluoroethyl)phenoxy]-3-({1-[(1R,2R)-4,4-difluoro-2-phenylcyclohexane-1-carbonyl]-4-hydroxypiperidin-4-yl}methyl)pyrimidin-4(3H)-one] | 0.128
8.66 | Nc1c(Oc2ccc(F)cc2)ncn(CC2(O)CCN(C(=O)[C@@H]3CC[C@](F)(C#Cc4cccnn4)C[C@H]3c3ccccc3)CC2)c1=O [Example 145, 5-amino-3-[(1-{[(1R,2R,4R)-4-fluoro-2-phenyl-4-[2-(pyridazin-3-yl)ethynyl]cyclohexyl]carbonyl}-4-hydroxypiperidin-4-yl)methyl]-6-(4-fluorophenoxy)pyrimidin-4-one] | 0.00231
11 | NCc1ccc(Oc2ncn(CC3(O)CCN(C(=O)[C@@H]4CCC(F)(F)C[C@H]4c4ccccc4)CC3)c(=O)c2N)cc1Cl [Example 66, 5-amino-6-[4-(aminomethyl)-3-chlorophenoxy]-3-({1-[(1R,2R)-4,4-difluoro-2-phenylcyclohexane-1-carbonyl]-4-hydroxypiperidin-4-yl}methyl)pyrimidin-4(3H)-one] | 0.301
28 | Nc1c(Oc2ccc(Cl)c(O)c2)ncn(CC2(O)CCN(C(=O)[C@@H]3CCC(F)(F)C[C@H]3c3ccccc3)CC2)c1=O [Example 110, 5-amino-6-(4-chloro-3-hydroxyphenoxy)-3({1-[(1R,2R)-4,4-difluoro-2-phenylcyclohexane-1-carbonyl]-4-hydroxypiperidin-4-yl}methyl)pyrimidin-4(3H)-one] | 0.0254
16.3 | CC(C)c1ccc(Oc2ncn(CC3(O)CCN(C(=O)[C@@H]4CCC(F)(F)C[C@H]4c4ccccc4)CC3)c(=O)c2N)cc1O [Example 120, 5-amino-3-({1-[(1R,2R)-4,4-difluoro-2-phenylcyclohexane-1-carbonyl]-4-hydroxypiperidin-4-yl}methyl)-6-[3-hydroxy-4-(propan-2-yl)phenoxy]pyrimidin-4(3H)-one] | 0.103
37.2 | Nc1c(Oc2cccc(C3CNCCO3)c2)ncn(CC2(O)CCN(C(=O)[C@@H]3CCC(F)(F)C[C@H]3c3ccccc3)CC2)c1=O (stereo partly drawn) [Example 115, 5-amino-3-([1-[(1R,2R)-4,4-difluoro-2-phenylcyclohexane-1-carbonyl]-4-hydroxypiperidin-4-yl]methyl)-6-[3-(morpholin-2-yl)phenoxy]pyrimidin-4(3H)-one] | 0.85
75 | NC(=O)CCc1ccc(Oc2ncn(CC3(O)CCN(C(=O)[C@@H]4CCC(F)(F)C[C@H]4c4ccccc4)CC3)c(=O)c2N)cc1 [Example 67, 3-(4-{[5-amino-1-({1-[(1R,2R)-4,4-difluoro-2-phenylcyclohexane-1-carbonyl]-4-hydroxypiperidin-4-yl}methyl)-6-oxo-1,6-dihydropyrimidin-4-yl]oxy}phenyl)propanamide] | 0.668
109 | Nc1c(Oc2ccc(F)cc2)ncn(CC2(O)CCN(C(=O)[C@@H]3CC[C@](O)(Cc4ccccn4)C[C@H]3c3ccccc3)CC2)c1=O (relative stereo) [Example 96, rel-5-amino-6-(4-fluorophenoxy)-3-({4-hydroxy-1-[(1R,2R,4R)-4-hydroxy-2-phenyl-4-](pyridin-2-yl)methyl]cyclohexanecarbonyl]piperidin-4-yl}methyl)-3,4-dihydropyrimidin-4-one] | 0.116
– | Nc1c(Oc2ccc(F)cc2)ncn(CC2(O)CCN(C(=O)C3CCC(O)(Cc4ccc(F)cc4)CC3c3ccccc3)CC2)c1=O [Example 99, rel-5-amino-6-(4-fluorophenoxy)-3-({1-[(1R,2R,4R)-4-[(4-fluorophenyl))methyl]-4-hydroxy-2-phenylcyclohexanecarbonyl]-4-hydroxypiperidin-4-yl}methyl)-3,4-dihydropyrimidin-4-one] | 0.0128
